Experimental findings from ChEMBL document CHEMBL5055671, “Targeting a Novel KRAS Binding Site: Application of One-Component Stapling of Small (5-6-mer) Peptides” (J Med Chem, 2021) are described below.

Test [1] deals with GTPase KRas (Homo sapiens), P01116 [G12V]. Kind of test: Inhibition of alexa fluor 647-labeled kinase tracer 314 binding to biotinylated-KRAS G12V mutant (unknown origin) at 100 uM measured after 60 mins by HTRF competition binding assay.
Test [2] addresses GTPase KRas (Homo sapiens, UniProt P01116, G12V). Kind of test: Inhibition of alexa fluor 647-labeled kinase tracer 314 binding to biotinylated-KRAS G12V mutant (unknown origin) measured after 60 mins by HTRF competition binding assay. Particulars: for IC50: read-out: IC50.

The inhibition is the drop in the measured response relative to a control, in per cent. By IC50 is commonly meant the concentration that gives 50% inhibition. As to `C=C1/C=C/CCCC(=O)N[C@@H](C)C(=O)N2CCC[C@H]2C(=O)N[C@@H]([C@@H](C)CC)C(=O)N[C@H](C(=O)N[C@@H](CC(C)C)C(N)=O)CSC1`, the inhibition in test [1] is 28%. The half-inhibitory concentration (IC50) in test [2] is over 100 µM.

With `CC[C@H](C)[C@@H]1NC(=O)[C@@H]2CCCN2C(=O)[C@H](Cc2ccccc2)NC(=O)CCCCn2nncc2COC[C@@H](C(=O)N[C@@H](CC(C)C)C(N)=O)NC1=O`, in test [1], the inhibition came out at 38%. The IC50 in test [2] is over 100 µM.

In the case of `C=C1/C=C/COC[C@@H](C(=O)N[C@@H](CC(C)C)C(N)=O)NC(=O)[C@H]([C@@H](C)CC)NC(=O)[C@@H]2CCCN2C(=O)CNC(=O)C1`, in test [1], the inhibition came out at 46%. Also, in test [2], the IC50 turned out to be 98 µM.

Compound `CC[C@H](C)[C@@H]1NC(=O)[C@@H]2CCCN2C(=O)CNC(=O)CCCc2cn(nn2)CC[C@@H](C(=O)N[C@@H](CC(C)C)C(N)=O)NC1=O` yielded an inhibition in test [1] of 6%. For the same compound, in test [2], the IC50 was over 100 µM.

As to `CC[C@H](C)[C@@H]1NC(=O)[C@@H]2CCCN2C(=O)CNC(=O)CCCc2cnnn2C[C@@H](C(=O)N[C@@H](CC(C)C)C(N)=O)NC1=O`, in test [1], the inhibition came to 16%. Further, the IC50 in test [2] is over 100 µM.

In turn, `CC[C@H](C)[C@@H]1NC(=O)[C@@H]2CCCN2C(=O)[C@H](C)NC(=O)CCCCn2nncc2COC[C@@H](C(=O)N[C@@H](CC(C)C)C(N)=O)NC1=O` had an inhibition in test [1] of 30%. The IC50 in test [2] is over 100 µM.

With `CC(=O)N[C@@H](CC(=O)O)C(=O)N[C@H]1CCCn2nncc2COC[C@@H](C(=O)N[C@@H](CC(C)C)C(=O)N[C@@H](C)C(=O)N2CCC[C@H]2C(N)=O)NC(=O)[C@H](Cc2cccc3ccccc23)NC(=O)[C@@H]2CCCN2C(=O)CNC1=O`, the IC50 in test [2] was 40 µM.

For the compound `CC(C)C[C@H](NC(=O)[C@@H]1COCc2cnnn2CCCCC(=O)NCC(=O)N2CCCCC[C@H]2C(=O)N[C@@H](Cc2cccc3ccccc23)C(=O)N1)C(N)=O`, in test [2], the IC50 stood at 55 µM.

The compound `CC[C@H](C)[C@@H]1NC(=O)[C@@H]2CCCN2C(=O)[C@H](C)NC(=O)CCCC#CC#CCOC[C@@H](C(=O)N[C@@H](CC(C)C)C(N)=O)NC1=O` came in with an inhibition in test [1] of 0%. For the same compound, in test [2], the IC50 was over 100 µM.

For `CC[C@H](C)[C@@H]1NC(=O)[C@@H]2CCCN2C(=O)[C@H](C)NC(=O)CCC/C=C/COC[C@@H](C(=O)N[C@@H](CC(C)C)C(N)=O)NC1=O`, the inhibition in test [1] was 5%. Besides, the IC50 in test [2] is over 100 µM.

In the case of `CC(C)C[C@H](NC(=O)[C@@H]1COCc2cnnn2CCCCC(=O)N[C@H](C)C(=O)N2CCC[C@H]2C(=O)N[C@@H](Cc2cccc3ccccc23)C(=O)N1)C(N)=O`, the IC50 in test [2] was 25 µM.

`CC(C)C[C@H](NC(=O)[C@H]1Cc2cnnn2CCCCC(=O)NCC(=O)N2CCC[C@H]2C(=O)N[C@@H](Cc2cccc3ccccc23)C(=O)N1)C(N)=O`: the IC50 in test [2] worked out at 65 µM.

In test [1], `CC[C@H](C)[C@@H]1NC(=O)[C@@H]2CCCN2C(=O)CNC(=O)CCCCn2nncc2COC[C@@H](C(=O)N[C@@H](CC(C)C)C(N)=O)NC1=O` displayed an inhibition of 48%. For the same compound, the IC50 in test [2] was determined as 100 µM.

With `CC(C)C[C@H](NC(=O)[C@H]1Cn2nncc2CCCC(=O)NCC(=O)N2CCC[C@H]2C(=O)N[C@@H](Cc2cccc3ccccc23)C(=O)N1)C(N)=O`, the IC50 in test [2] came out at 31 µM.

As for `CC[C@H](C)[C@@H]1NC(=O)[C@@H]2CCCN2C(=O)CNC(=O)CCCn2nncc2COC[C@@H](C(=O)N[C@@H](CC(C)C)C(N)=O)NC1=O`, the inhibition in test [1] came out at 39%. In addition, the IC50 in test [2] is over 100 µM.

Consider `CC(C)C[C@H](NC(=O)[C@@H]1COCc2cnnn2CCCCC(=O)NCC(=O)N2C[C@H](O)C[C@H]2C(=O)N[C@@H](Cc2cccc3ccccc23)C(=O)N1)C(N)=O`, for which the IC50 in test [2] is 95 µM.

For `CC(C)C[C@H](NC(=O)[C@@H]1COCc2cnnn2CCCCC(=O)N[C@H](CCC(=O)O)C(=O)N2CCC[C@H]2C(=O)N[C@@H](Cc2cccc3ccccc23)C(=O)N1)C(N)=O`, in test [2], the IC50 is 100 µM.

As for `CC(C)C[C@H](NC(=O)[C@@H]1COCc2cnnn2CCCCC(=O)NCC(=O)N2Cc3ccccc3C[C@H]2C(=O)N[C@@H](Cc2cccc3ccccc23)C(=O)N1)C(N)=O`, in test [2], the 50% inhibitory concentration (IC50) stood at 5.8 µM.

As for `CC[C@H](C)[C@@H]1NC(=O)[C@@H]2CCCN2C(=O)[C@H](C)NC(=O)c2ccccc2/C=C/COC[C@@H](C(=O)N[C@@H](CC(C)C)C(N)=O)NC1=O`, in test [1], the inhibition worked out at 25%. Also, the IC50 in test [2] is over 100 µM.

For `CC(C)C[C@H](NC(=O)[C@H]1CCCc2cnnn2CCCCC(=O)NCC(=O)N2CCC[C@H]2C(=O)N[C@@H](Cc2cccc3ccccc23)C(=O)N1)C(N)=O`, the IC50 in test [2] came to 19 µM.

Turning to `CC(C)C[C@H](NC(=O)[C@@H]1COCc2cnnn2CCCCC(=O)NCC(=O)N2CCC[C@H]2C(=O)N[C@@H](Cc2ccccc2)C(=O)N1)C(N)=O`, in test [2], the IC50 is over 38 µM.

As to `CC(C)C[C@H](NC(=O)[C@@H]1COCc2cnnn2CCCCC(=O)NCC(=O)N2CCC[C@H]2C(=O)N[C@@H](CC2CC2)C(=O)N1)C(N)=O`, the IC50 in test [2] was determined as 32 µM.

For `CC(=O)N[C@@H](CCC(=O)O)C(=O)N[C@H]1CCCn2nncc2COC[C@H](C(=O)N[C@@H](CC(C)C)C(N)=O)NC(=O)[C@H](Cc2cccc3ccccc23)NC(=O)[C@@H]2CCCN2C(=O)CNC1=O`, in test [2], the IC50 was 93 µM.

In the case of `CC(C)C[C@H](NC(=O)[C@@H]1COCc2cnnn2CCCCCC(=O)N2CCC[C@H]2C(=O)N[C@@H](Cc2cccc3ccccc23)C(=O)N1)C(N)=O`, in test [2], the concentration for half-maximal inhibition (IC50) worked out at 12 µM.

`CC[C@H](C)[C@@H]1NC(=O)[C@@H]2CCCN2C(=O)[C@H](Cc2ccc(O)cc2)NC(=O)CCc2cnnn2CC[C@@H](C(=O)N[C@@H](CC(C)C)C(N)=O)NC1=O` registered an inhibition in test [1] of 44%. Further, in test [2], the IC50 is over 100 µM.

`CC(C)C[C@H](NC(=O)[C@@H]1COCc2cnnn2CCCCC(=O)NCC(=O)N2CCC[C@H]2C(=O)N[C@H](Cc2ccccc2)C(=O)N1)C(N)=O`: the IC50 in test [2] is over 82 µM.

As a reminder, the pIC50 is the negative decadic logarithm of the IC50, by convention in mol/L. High values mean a low IC50, low ones a high IC50. As for `CC(C)C[C@H](NC(=O)[C@H]1COCc2cn(nn2)CCCCC(=O)NCC(=O)N2CCC[C@H]2C(=O)N[C@@H](Cc2cccc3ccccc23)C(=O)N1)C(N)=O`, in test [2], the pIC50 was under 4 and the IC50 is over 100 µM.

For the compound `CC(=O)N[C@@H](Cc1cccc2ccccc12)C(=O)N[C@@H](COCc1cnnn1CCCCC(=O)NCC(N)=O)C(=O)N[C@@H](CC(C)C)C(N)=O`, in test [2], the 50% inhibitory concentration (IC50) turned out to be 38 µM.

`CC(C)C[C@H](NC(=O)[C@@H]1COCc2cnnn2CCCCC(=O)N[C@@H](CC(=O)O)C(=O)N2CCC[C@H]2C(=O)N[C@@H](Cc2cccc3ccccc23)C(=O)N1)C(N)=O`: the IC50 in test [2] came to 66 µM.

On to `NC(=O)[C@H](CC1CC1)NC(=O)[C@@H]1COCc2cnnn2CCCCC(=O)NCC(=O)N2CCC[C@H]2C(=O)N[C@@H](Cc2cccc3ccccc23)C(=O)N1`, for which the IC50 in test [2] is 29 µM.

In the case of `CC(C)C[C@H](NC(=O)[C@@H]1COCc2cnnn2CCCCC(=O)NCC(=O)N2CCC[C@H]2C(=O)N[C@@H](Cc2cccs2)C(=O)N1)C(N)=O`, the IC50 in test [2] was found to be 53 µM.

Take `CC(C)C[C@H](NC(=O)[C@@H]1COCc2cnnn2CCCCC(=O)NCC(=O)N2CCC[C@H]2C(=O)N[C@@H](c2ccccc2)C(=O)N1)C(N)=O`: in test [2], the half-inhibitory concentration (IC50) is over 100 µM.

With `NC(=O)CC[C@H](NC(=O)[C@@H]1COCc2cnnn2CCCCC(=O)NCC(=O)N2CCC[C@H]2C(=O)N[C@@H](Cc2cccc3ccccc23)C(=O)N1)C(N)=O`, the IC50 in test [2] turned out to be 50 µM.

Take `CC(=O)N[C@@H](CC(=O)O)C(=O)N[C@H]1CCCn2nncc2COC[C@H](C(=O)N[C@@H](CC(C)C)C(N)=O)NC(=O)[C@H](Cc2cccc3ccccc23)NC(=O)[C@@H]2CCCN2C(=O)CNC1=O`: the half-maximal inhibitory concentration (IC50) in test [2] was determined as 38 µM.

As to `CCCC[C@H](NC(=O)[C@@H]1COCc2cnnn2CCCCC(=O)NCC(=O)N2CCC[C@H]2C(=O)N[C@@H](Cc2cccc3ccccc23)C(=O)N1)C(N)=O`, the IC50 in test [2] amounted to 100 µM.

Consider `C[C@H](NC(=O)[C@@H]1COCc2cnnn2CCCCC(=O)NCC(=O)N2CCC[C@H]2C(=O)N[C@@H](Cc2cccc3ccccc23)C(=O)N1)C(N)=O`, for which the IC50 in test [2] was determined as 37 µM.

Consider `CC(C)C[C@H](NC(=O)[C@@H]1COCc2cnnn2CCCCC(=O)NCC(=O)N2CCC[C@H]2C(=O)N[C@@H](Cc2ccccc2Cl)C(=O)N1)C(N)=O`, for which the IC50 in test [2] is over 100 µM.

On to `CC(C)C[C@H](NC(=O)[C@@H]1COCc2cnnn2CCCCC(=O)NCC(=O)N(C)[C@@H](C(C)C)C(=O)N[C@@H](Cc2cccc3ccccc23)C(=O)N1)C(N)=O`, for which, in test [2], the 50% inhibitory concentration (IC50) worked out at 100 µM.

Turning to `CCCC[C@@H]1NC(=O)[C@@H]2CCCN2C(=O)CNC(=O)CCCCn2nncc2COC[C@@H](C(=O)N[C@@H](CC(C)C)C(N)=O)NC1=O`, in test [2], the IC50 was 48 µM.

Turning to `NC(=O)C[C@H](NC(=O)[C@@H]1COCc2cnnn2CCCCC(=O)NCC(=O)N2CCC[C@H]2C(=O)N[C@@H](Cc2cccc3ccccc23)C(=O)N1)C(N)=O`, the IC50 in test [2] stood at 48 µM.

Turning to `CC(C)C[C@H](NC(=O)[C@@H]1COCc2cnnn2CCCCC(=O)NCC(=O)N2CCC[C@H]2C(=O)N[C@@H](Cc2ccc3ccccc3c2)C(=O)N1)C(N)=O`, the IC50 in test [2] came out at 9.5 µM.

With `CC(C)C[C@H](NC(=O)[C@@H]1COCc2cnnn2CCCCC(=O)NCC(=O)N2CCC[C@H]2C(=O)N[C@@H](Cc2ccc(Cl)cc2)C(=O)N1)C(N)=O`, the IC50 in test [2] is over 74 µM.

`CC(C)C[C@H](NC(=O)[C@@H]1COCc2cnnn2CCCCC(=O)N[C@H](CC(=O)O)C(=O)N2CCC[C@H]2C(=O)N[C@@H](Cc2cccc3ccccc23)C(=O)N1)C(N)=O`: the IC50 in test [2] worked out at 77 µM.

As to `CC(C)C[C@H](NC(=O)[C@@H]1COCc2cnnn2CCCCC(=O)NCC(=O)N2CCC[C@H]2C(=O)N[C@@H](Cc2cccnc2)C(=O)N1)C(N)=O`, the IC50 in test [2] is 41 µM.

`CC(C)C[C@H](NC(=O)[C@@H]1COCc2cnnn2CCCCC(=O)N[C@@H](C)C(=O)N2CCC[C@H]2C(=O)N[C@@H](Cc2cccc3ccccc23)C(=O)N1)C(N)=O`: in test [2], the IC50 came to 9.7 µM.

In the case of `CC(C)C[C@H](NC(=O)[C@H]1COCc2cnnn2CCCCC(=O)NCC(=O)N2CCC[C@H]2C(=O)N[C@@H](Cc2cccc3ccccc23)C(=O)N1)C(=O)N[C@@H](C)C(=O)N1CCC[C@H]1C(N)=O`, the IC50 in test [2] came to 46 µM.

On to `CC(C)C[C@H](NC(=O)[C@@H]1COCc2cnnn2CCCCCCCCCC(=O)N2CCC[C@H]2C(=O)N[C@@H](Cc2cccc3ccccc23)C(=O)N1)C(N)=O`, for which the IC50 in test [2] was found to be 28 µM.
